Data set [1] in a line: Compound stability in human liver microsomes. The format is in vitro ADME. The following applies: pH 7.4; for half-life at 5 μM: human liver microsomes 0.5 mg protein/mL, compound 5 μM, NADPH 1.0 mM, 37° C., read-out: Human T1/2; for CLint scaled at 5 μM: human liver microsomes, in vivo CLint extrapolated. On the procedure: (§1) Human or rat liver microsomes incubations were conducted in duplicate in polypropylene tubes. The typical incubation mixtures consisted of human or rat liver microsomes (0.5 mg protein/mL), compounds of interest (5 μM) and NADPH (1.0 mM) in a total volume of 200 μL potassium phosphate buffer (PBS, 100 mM, pH=7.4). Compounds were dissolved in DMSO and diluted with PBS such that the final concentration of DMSO was 0.05%. The enzymatic reactions were commenced with the addition of […] after a 3-min preincubation and incubated in a water bath open to the air at 37° C. Reactions were terminated at various time points (0, 5, 10, 15, 30, 60 min) by adding equal volume of ice-cold acetonitrile. The samples were stored at −80° C. until LC/MS/MS assays.
(§2) The concentrations of compounds in the incubation mixtures of human or rat liver microsomes were determined by a LC/MS/MS method. The ranges of the linearity in the concentration range were determined for each tested compounds.
(§3) A parallel incubation was performed using denatured microsomes as the negative control, and reactions were terminated at various time points (0, 15, 60 min) after incubation at 37° C.
(§4) Dextromethorphan (70 μM) was selected as the positive control, and reactions were terminated at various time points (0, 5, 10, 15, 30, 60 min) after incubation at 37° C. Both positive and negative control samples were included in each assay to ensure the integrity of the microsomal incubation system.
(§5) The concentrations of compounds in human or rat liver microsome incubations were plotted as a percentage of the relevant zero time point control for each reaction. The in vivo CLint were extrapolated (ref: Naritomi Y, Terashita S, Kimura S, Suzuki A, Kagayama A, Sugiyama Y. Prediction of human hepatic clearance from in vivo animal experiments and in vitro metabolic studies with liver microsomes from animals and humans. Drug Metabolism and Disposition 2001, 29: 1316-1324).

The nature of data set [2]: Compound stability in rat liver microsomes. The data set is classed as in vitro ADME. On the procedure:
as §1, §2, §3, §4, §5
A general note: Microsomes from liver hold many membrane-bound enzymes, among them those of drug oxidation.

Data set [3] is described as follows: Pharmacokinetic profiles in rats after intravenous and oral administration. The data set is classed as in vivo. The following applies: for F: oral dose generally 5 or 10 mg/kg; for AUC(0-t) / half-life / Vd: rat, plasma; for Vd: read-out: Vss. On the procedure:
The compounds disclosed herein are assessed in pharmacokinetic studies in mice, rats, dogs or monkeys. The compounds are administered as a water solution, 2% HPMC+1% TWEEN® 80 in water solution, 5% DMSO+5% solutol in saline, 4% MC suspension or capsule. For the intravenous administration, the animals are generally given at 1 or 2 mg/kg dose. For the oral (p.o.) dosing, mice and rats are generally given 5 or 10 mg/kg dose, and dogs and monkeys are generally given 10 mg/kg dose. The blood samples (0.3 mL) are drawn at 0.25, 0.5, 1.0, 2.0, 3.0, 4.0, 6.0, 8.0, 12 and 24 h time points or 0.083, 0.25, 0.5, 1.0, 2.0, 4.0, 6.0, 8.0 and 24 h time points and centrifuged at 3,000 or 4000 rpm for 2 to 10 min. The plasma solutions are collected, stored at −20° C. or −70° C. until analyzed by LC/MS/MS as described above.

The target of a further data set is T1, PI3K p110β/p85α (h) (Homo sapiens, UniProt P42338).
T1 construct: purchased Millipore UK Ltd (assay service)
T1 sequence (P42338 whole entry): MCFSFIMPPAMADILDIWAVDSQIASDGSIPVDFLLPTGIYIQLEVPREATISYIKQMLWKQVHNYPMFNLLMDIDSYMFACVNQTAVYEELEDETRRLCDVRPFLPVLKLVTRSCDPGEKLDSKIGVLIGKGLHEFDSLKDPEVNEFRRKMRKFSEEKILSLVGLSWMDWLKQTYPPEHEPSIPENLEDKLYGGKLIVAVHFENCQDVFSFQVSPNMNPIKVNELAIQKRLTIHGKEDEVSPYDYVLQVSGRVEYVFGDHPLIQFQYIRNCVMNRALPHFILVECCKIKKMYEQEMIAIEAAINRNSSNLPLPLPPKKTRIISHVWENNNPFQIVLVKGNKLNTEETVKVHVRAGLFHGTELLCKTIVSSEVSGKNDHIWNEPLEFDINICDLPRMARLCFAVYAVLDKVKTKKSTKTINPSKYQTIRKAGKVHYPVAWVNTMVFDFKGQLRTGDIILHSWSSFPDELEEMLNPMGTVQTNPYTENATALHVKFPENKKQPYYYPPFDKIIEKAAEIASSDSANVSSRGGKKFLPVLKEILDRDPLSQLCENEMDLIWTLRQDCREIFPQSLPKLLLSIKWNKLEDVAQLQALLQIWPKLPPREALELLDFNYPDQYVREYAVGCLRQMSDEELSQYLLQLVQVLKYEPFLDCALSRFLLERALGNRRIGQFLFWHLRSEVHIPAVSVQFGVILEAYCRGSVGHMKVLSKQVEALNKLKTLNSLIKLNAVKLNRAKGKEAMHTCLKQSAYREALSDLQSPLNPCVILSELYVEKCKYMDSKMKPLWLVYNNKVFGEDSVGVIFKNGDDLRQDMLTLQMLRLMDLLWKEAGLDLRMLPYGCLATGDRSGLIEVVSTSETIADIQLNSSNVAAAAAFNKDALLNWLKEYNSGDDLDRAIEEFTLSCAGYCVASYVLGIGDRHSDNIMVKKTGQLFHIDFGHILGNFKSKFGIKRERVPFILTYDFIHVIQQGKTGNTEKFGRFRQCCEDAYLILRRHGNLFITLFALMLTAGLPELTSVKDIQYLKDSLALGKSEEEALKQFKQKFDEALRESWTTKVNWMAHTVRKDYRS
T1 sequence (P27986 whole entry partner): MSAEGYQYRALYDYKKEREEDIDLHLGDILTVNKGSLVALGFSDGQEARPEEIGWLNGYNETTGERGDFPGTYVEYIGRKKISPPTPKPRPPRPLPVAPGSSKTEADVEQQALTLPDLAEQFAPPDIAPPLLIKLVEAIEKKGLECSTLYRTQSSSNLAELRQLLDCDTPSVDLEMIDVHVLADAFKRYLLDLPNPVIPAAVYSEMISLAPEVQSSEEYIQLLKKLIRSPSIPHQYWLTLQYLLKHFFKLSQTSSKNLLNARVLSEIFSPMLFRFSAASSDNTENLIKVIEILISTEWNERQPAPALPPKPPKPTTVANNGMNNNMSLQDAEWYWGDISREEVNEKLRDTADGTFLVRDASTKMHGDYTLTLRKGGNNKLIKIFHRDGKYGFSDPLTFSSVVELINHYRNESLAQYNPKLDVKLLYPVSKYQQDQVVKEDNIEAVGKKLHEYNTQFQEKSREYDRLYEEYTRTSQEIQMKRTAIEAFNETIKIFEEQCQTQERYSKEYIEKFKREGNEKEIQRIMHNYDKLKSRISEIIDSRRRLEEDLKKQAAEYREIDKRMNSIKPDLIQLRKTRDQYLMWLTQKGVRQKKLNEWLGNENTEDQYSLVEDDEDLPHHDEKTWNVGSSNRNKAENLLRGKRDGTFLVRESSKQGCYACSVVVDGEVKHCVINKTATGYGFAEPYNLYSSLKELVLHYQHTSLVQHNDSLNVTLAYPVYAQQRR
Description: PI3K p110β/p85α (h) non-radioactive HTRF assay. The format is biochemical. On the procedure: (§6) PI3K (p110β/p85α) (h) is incubated in assay buffer containing 10 μM phosphatidylinositol-4,5-bisphosphate and MgATP (concentration as required). The reaction is initiated by the addition of the MgATP mix. After incubation for 30 minutes at room temperature, the reaction is stopped by the addition of stop solution containing EDTA and biotinylated phosphatidylinositol-3,4,5-trisphosphate. Finally, detection buffer is added, which contains europium-labelled anti-GST monoclonal antibody, GST-tagged GRP1 PH domain and streptavidin-allophycocyanin. The plate is then read in timeresolved fluorescence mode and the homogenous time-resolved fluorescence (HTRF) signal is determined according to the formula HTRF=10000×(Em665 nm/Em620 nm).
(§7) The kinase assays described herein were performed at Millipore UK Ltd, Dundee Technology Park, Dundee DD2 1SW, UK.
In general terms: Time-resolved FRET reads energy transfer from a long-lived donor to a nearby acceptor.

For another data set, the target named is T2, PI3K (p110δ/p85α) (h) (Homo sapiens, UniProt O00329).
T2 construct: purchased Millipore UK Ltd (assay service)
T2 sequence (O00329 whole entry): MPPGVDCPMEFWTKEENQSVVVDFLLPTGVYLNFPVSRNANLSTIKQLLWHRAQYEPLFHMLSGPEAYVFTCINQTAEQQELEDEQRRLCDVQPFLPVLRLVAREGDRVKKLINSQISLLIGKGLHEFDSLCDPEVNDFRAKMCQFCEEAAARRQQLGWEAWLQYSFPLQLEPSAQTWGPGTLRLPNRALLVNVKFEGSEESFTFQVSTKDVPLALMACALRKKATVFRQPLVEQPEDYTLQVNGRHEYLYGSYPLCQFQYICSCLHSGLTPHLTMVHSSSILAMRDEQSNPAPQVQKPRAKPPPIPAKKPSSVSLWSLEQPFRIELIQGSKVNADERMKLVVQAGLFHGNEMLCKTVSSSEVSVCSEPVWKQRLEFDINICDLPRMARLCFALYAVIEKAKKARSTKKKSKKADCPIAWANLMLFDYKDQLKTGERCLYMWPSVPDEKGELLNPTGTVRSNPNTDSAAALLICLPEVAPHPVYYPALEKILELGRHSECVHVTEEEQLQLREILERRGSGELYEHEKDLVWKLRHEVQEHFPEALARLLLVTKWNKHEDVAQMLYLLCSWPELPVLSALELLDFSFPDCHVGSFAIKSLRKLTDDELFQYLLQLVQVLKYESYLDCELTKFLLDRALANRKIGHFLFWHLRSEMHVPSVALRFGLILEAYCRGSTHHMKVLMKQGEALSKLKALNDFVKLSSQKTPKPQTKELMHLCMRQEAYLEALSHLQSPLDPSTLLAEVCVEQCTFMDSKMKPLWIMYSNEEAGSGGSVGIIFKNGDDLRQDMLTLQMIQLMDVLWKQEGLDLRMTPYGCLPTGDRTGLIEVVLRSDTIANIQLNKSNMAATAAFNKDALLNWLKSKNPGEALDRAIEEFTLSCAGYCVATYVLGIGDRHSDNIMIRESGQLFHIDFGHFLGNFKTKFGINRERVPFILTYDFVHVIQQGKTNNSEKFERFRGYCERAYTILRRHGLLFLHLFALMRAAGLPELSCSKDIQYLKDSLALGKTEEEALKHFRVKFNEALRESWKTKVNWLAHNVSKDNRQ
T2 sequence (P27986 whole entry partner): as the sequence (P27986 whole entry partner) above
Description: PI3K p110δ/p85α (h) non-radioactive HTRF assay. The format is biochemical. On the procedure: as §6, with “(p110δ/p85α)” for “(p110β/p85α)”
as §7

pIC50: −log10 of the molar value. Read-outs that look alike come from different tables or passages of the source.

Usually CLint scaled stands for the capacity of the preparation to metabolise the compound, expressed as a volume cleared per time. What is called AUC(0-t) is the area under the concentration-time curve up to a stated or last time point. A high value points to high exposure. Usually pIC50 stands for the negative decadic logarithm of the IC50, by convention in mol/L. Regarding `CC#Cc1cnc2ccc(-c3cnc(OC)c(NS(=O)(=O)c4ccc(F)cc4F)c3)cn12` [Ex. 18, 2,4-difluoro-N-(2-methoxy-5-(3-(prop-1-yn-1-yl)imidazo[1,2-a]pyridin-6-yl)pyridin-3-yl)benzenesulfonamide], in data set [1], the half-life at 5 μM is 3.54 h and the CLint scaled at 5 μM is 8.18 mL/min/kg. Besides, the half-life at 5 μM in data set [2] (pH 7.4, rat liver microsomes 0.5 mg protein/mL, compound 5 μM, NADPH 1.0 mM, 37° C., read-out: Rat T1/2) turned out to be 0.731 h. For the same compound, the CLint scaled at 5 μM in data set [2] (pH 7.4, rat liver microsomes, in vivo CLint extrapolated) is 56.6 mL/min/kg. Besides, the F in data set [3] (iv dose 1 mg/kg) is given as 97.16%. In data set [3] (iv dosing 1 mg/kg), the Cl/F turned out to be 1.67 mL/min/kg, the AUC(0-t) amounted to 10300 ng·h/mL, the half-life was 2.33 h and the Vd came out at 0.35 L/kg. Further, the pIC50 at PI3K p110β/p85α (h) is 7.55. For the same compound, on PI3K (p110δ/p85α) (h), the pIC50 was 8.70.
`COc1ncc(-c2ccc3ncc(C#N)n3c2)cc1NS(=O)(=O)c1ccc(F)cc1F` [Ex. 19, N-(5-(3-cyanoimidazo[1,2-a]pyridin-6-yl)-2-methoxypyridin-3-yl)-2,4-difluorobenzenesulfonamide]: in data set [1], the half-life at 5 μM was found to be 7.07 h and the CLint scaled at 5 μM is 4.1 mL/min/kg. In addition, the “Rat T1/2” value in data set [2] (rat liver microsomes 0.5 mg protein/mL, compound 5 μM, NADPH 1.0 mM, 37° C.) was “∞”. The compound further came in with a F in data set [3] (iv dose 2 mg/kg) of 54.66%. In data set [3] (iv dosing 2 mg/kg), the Cl/F worked out at 3.83 mL/min/kg, the AUC(0-t) worked out at 10100 ng·h/mL, the half-life was 2.58 h and the Vd was 0.55 L/kg. The pIC50 at PI3K p110β/p85α (h) was 7.55. For the same compound, on PI3K (p110δ/p85α) (h), the pIC50 is 8.40.

These data come from US9926324B2, “Heteroaromatic compounds as PI3 kinase modulators and methods of use” (Calitor Sciences, LLC, priority 2012, dated 2018).
